The values that follow are results of earlier work, collected in patent US20260077140A1, “METERED DOSE INHALER FOR IPRATROPIUM BROMIDE SOLUTION” (Glenmark Pharmaceuticals Limited, priority 2024, published 2026).

Read-outs that look alike come from different tables or passages of the source.

For this series the following is noted: aerosol solution in HFA-134(a) and about 35% ethanol, stored at 50° C.

In the case of `CC(C)[N+]1(C)[C@@H]2CC[C@H]1CC(OC(=O)C(CO)c1ccccc1)C2.[Br-]` (some centres unmarked) [ipratropium bromide], the “decomposition of the ipratropium bromide” value is given as “significant decomposition”. The “decomposition of the ipratropium bromide” value (addition of 1% water) is “reduced the decomposition due to dehydration”.
